For one experiment, the system named is BV-2. As to the kind of experiment: Antiinflammatory activity in mouse BV-2 cells assessed as reduction in LPS-induced nitric oxide production at 10 uM relative to control. Also on record: scale not given: the % may be the effect or the level left. It counts as functional.
Experiment [1] can be described thus: Inhibition of LPS-induced NFkappaB activation in mouse RAW264.7 cells assessed as effect on LPS-induced nuclear translocation of NF-kappaB incubated for 1 hr. The format is cell-based. Conditions: RAW264.7, 1 h.
Another experiment concerns RAW264.7. As to the kind of experiment: Inhibition of LPS-induced NFkappaB activation in mouse RAW264.7 cells assessed as effect on LPS-induced nuclear translocation of NF-kappaB incubated for 1 hr at 5 uM relative to control. The format is cell-based.

`COc1cc(/C=C/C(=O)c2cccc(C(=O)/C=C/c3ccc(O)c(OC)c3)c2)ccc1O`: in the experiment with BV-2, the Activity is reported as 70%.
As to `O=C1/C(=C/c2ccccn2)CNC/C1=C\c1ccccn1`, in experiment [1], the half-inhibitory concentration (IC50) – broadly, the midpoint of a concentration-inhibition curve – was found to be 4.5 µM. Besides, the inhibition (in general, the percentage by which the read-out fell short of the control) with RAW264.7 worked out at 100%.

For the origin of these results see ChEMBL document CHEMBL5346938, “Bis-chalcones: A review of synthetic methodologies and anti-inflammatory effects” (Eur J Med Chem, 2023).
